# Assays:
# [1] = molecular target: BMP-2-inducible protein kinase (Homo sapiens) (UniProt Q9NSY1); test: Inhibition of BIKE (unknown origin) assessed as remaining activity at 1 uM by Kinome scan method relative to control
# [2] = molecular target: Death-associated protein kinase 1 (Homo sapiens) (UniProt P53355); test: Inhibition of DAPK1 (unknown origin) assessed as remaining activity at 1 uM by Kinome scan method relative to control
# [3] = molecular target: Homeodomain-interacting protein kinase 3 (Homo sapiens) (UniProt Q9H422); test: Inhibition of HIPK3 (unknown origin) assessed as remaining activity at 1 uM by Kinome scan method relative to control
# [4] = molecular target: Interleukin-1 receptor-associated kinase 1 (Homo sapiens) (UniProt P51617); test: Inhibition of IRAK1 (unknown origin) assessed as remaining activity at 1 uM by Kinome scan method relative to control
# Interleukin-1 receptor-associated kinase 1 (Homo sapiens), sequence (P51617 whole entry, looked up, the tested form may be a part): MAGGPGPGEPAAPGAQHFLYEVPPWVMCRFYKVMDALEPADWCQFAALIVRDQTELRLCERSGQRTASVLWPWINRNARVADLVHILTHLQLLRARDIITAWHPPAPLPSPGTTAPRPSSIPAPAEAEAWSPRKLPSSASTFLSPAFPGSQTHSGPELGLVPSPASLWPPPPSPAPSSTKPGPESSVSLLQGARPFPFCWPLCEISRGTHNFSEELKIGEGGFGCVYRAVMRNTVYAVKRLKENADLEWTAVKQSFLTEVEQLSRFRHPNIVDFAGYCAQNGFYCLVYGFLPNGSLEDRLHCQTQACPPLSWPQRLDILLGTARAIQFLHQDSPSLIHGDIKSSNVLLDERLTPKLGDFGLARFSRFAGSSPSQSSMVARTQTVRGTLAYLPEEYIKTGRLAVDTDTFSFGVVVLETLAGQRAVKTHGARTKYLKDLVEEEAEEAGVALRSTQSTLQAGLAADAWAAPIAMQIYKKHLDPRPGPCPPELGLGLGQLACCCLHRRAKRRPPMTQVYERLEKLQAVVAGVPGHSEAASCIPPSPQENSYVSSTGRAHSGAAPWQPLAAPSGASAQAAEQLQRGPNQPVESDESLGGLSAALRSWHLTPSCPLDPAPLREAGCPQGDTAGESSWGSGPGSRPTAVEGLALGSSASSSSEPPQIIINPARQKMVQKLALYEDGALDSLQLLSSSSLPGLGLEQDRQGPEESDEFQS
# [5] = molecular target: LIM domain kinase 1 (Homo sapiens) (UniProt P53667); test: Inhibition of LIMK1 (unknown origin) assessed as remaining activity at 1 uM by Kinome scan method relative to control
# LIM domain kinase 1 (Homo sapiens), sequence (P53667 whole entry, looked up, the tested form may be a part): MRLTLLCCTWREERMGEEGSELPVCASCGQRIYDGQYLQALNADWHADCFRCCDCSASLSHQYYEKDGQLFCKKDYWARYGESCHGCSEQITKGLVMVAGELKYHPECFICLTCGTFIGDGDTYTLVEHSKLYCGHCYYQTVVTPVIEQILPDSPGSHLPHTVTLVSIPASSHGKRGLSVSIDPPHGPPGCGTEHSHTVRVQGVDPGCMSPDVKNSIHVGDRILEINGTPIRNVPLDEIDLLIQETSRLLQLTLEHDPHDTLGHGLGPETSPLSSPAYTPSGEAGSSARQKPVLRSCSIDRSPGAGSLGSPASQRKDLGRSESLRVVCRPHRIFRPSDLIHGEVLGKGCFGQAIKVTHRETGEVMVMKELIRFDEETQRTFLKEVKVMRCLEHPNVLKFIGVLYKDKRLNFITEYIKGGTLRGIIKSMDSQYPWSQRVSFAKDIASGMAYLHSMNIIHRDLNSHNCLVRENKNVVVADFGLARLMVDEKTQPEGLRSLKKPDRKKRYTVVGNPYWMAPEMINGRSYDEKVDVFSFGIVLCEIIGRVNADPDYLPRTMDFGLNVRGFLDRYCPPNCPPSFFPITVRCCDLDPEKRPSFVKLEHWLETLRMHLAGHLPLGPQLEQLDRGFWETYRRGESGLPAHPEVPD
# [6] = molecular target: LIM domain kinase 2 (Homo sapiens) (UniProt P53671); test: Inhibition of LIMK2 (unknown origin) assessed as remaining activity at 1 uM by Kinome scan method relative to control
# LIM domain kinase 2 (Homo sapiens), sequence (P53671 whole entry, looked up, the tested form may be a part): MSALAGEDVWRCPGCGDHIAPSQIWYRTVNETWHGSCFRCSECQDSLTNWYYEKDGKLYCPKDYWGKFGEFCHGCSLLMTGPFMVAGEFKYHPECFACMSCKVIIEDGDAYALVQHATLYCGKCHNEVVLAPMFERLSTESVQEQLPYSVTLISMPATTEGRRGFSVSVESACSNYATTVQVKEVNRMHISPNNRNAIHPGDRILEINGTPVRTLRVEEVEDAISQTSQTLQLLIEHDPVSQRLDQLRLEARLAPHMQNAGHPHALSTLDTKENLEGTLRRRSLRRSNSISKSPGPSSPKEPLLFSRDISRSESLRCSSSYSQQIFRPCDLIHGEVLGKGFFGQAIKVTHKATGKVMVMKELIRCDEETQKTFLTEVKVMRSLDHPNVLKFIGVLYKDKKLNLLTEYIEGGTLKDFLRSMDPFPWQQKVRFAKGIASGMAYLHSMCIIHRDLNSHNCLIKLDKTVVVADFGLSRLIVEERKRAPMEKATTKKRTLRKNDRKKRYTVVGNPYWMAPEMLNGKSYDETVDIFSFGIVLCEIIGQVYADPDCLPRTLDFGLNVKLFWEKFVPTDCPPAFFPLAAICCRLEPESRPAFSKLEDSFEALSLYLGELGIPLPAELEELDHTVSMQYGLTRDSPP
# [7] = molecular target: Tyrosine-protein kinase Lyn (Homo sapiens) (UniProt P07948); test: Inhibition of LYN (unknown origin) assessed as remaining activity at 1 uM by Kinome scan method relative to control
# [8] = molecular target: Mitogen-activated protein kinase kinase kinase 15 (Homo sapiens) (UniProt Q6ZN16); test: Inhibition of MAP3K15 (unknown origin) assessed as remaining activity at 1 uM by Kinome scan method relative to control
# [9] = molecular target: Serine/threonine-protein kinase MARK2 (Homo sapiens) (UniProt Q7KZI7); test: Inhibition of MARK2 (unknown origin) assessed as remaining activity at 1 uM by Kinome scan method relative to control
# Serine/threonine-protein kinase MARK2 (Homo sapiens), sequence (Q7KZI7 whole entry): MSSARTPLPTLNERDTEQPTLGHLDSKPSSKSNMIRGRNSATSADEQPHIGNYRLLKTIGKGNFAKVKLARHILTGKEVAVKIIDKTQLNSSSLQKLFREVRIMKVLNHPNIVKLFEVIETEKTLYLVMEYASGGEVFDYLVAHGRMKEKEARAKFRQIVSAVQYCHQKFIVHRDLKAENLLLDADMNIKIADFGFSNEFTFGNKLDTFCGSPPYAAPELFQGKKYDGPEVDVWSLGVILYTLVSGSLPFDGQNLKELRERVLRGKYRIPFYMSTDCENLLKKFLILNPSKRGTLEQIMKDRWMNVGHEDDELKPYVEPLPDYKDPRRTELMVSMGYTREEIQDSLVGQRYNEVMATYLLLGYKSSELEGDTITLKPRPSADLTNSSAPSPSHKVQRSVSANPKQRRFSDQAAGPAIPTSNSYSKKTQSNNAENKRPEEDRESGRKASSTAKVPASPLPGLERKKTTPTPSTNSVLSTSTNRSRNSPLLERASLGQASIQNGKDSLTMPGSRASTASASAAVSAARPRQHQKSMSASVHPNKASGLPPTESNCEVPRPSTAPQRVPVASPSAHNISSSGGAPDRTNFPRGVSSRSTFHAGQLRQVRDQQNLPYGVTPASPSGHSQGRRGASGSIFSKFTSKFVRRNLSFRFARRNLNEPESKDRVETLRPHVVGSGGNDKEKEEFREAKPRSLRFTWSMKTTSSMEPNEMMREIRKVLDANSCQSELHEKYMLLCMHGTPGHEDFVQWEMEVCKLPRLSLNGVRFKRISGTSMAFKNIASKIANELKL
# [10] = molecular target: Serine/threonine-protein kinase 38 (Homo sapiens) (UniProt Q15208); test: Inhibition of NDR1 (unknown origin) assessed as remaining activity at 1 uM by Kinome scan method relative to control
# [11] = molecular target: Membrane-associated tyrosine- and threonine-specific cdc2-inhibitory kinase (Homo sapiens) (UniProt Q99640); test: Inhibition of PKMYT1 (unknown origin) assessed as remaining activity at 1 uM by Kinome scan method relative to control
# Membrane-associated tyrosine- and threonine-specific cdc2-inhibitory kinase (Homo sapiens), sequence (Q99640 whole entry): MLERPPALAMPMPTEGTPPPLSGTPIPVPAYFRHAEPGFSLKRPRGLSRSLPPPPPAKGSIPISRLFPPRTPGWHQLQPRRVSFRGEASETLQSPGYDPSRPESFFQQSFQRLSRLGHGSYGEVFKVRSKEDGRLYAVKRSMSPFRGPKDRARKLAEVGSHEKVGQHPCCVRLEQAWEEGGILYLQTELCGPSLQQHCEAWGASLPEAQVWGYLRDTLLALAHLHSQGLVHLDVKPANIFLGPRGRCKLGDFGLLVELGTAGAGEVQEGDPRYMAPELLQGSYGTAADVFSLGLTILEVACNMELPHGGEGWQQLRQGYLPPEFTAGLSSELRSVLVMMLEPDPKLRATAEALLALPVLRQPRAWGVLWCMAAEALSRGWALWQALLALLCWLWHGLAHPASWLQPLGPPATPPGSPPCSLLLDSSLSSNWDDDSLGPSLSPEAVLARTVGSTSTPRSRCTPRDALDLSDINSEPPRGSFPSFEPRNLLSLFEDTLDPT
# [12] = molecular target: T1, Serine/threonine-protein kinase D3 (Homo sapiens) (UniProt O94806); test: Inhibition of PRKD3 (unknown origin) assessed as remaining activity at 1 uM by Kinome scan method relative to control
# T1 sequence (whole entry): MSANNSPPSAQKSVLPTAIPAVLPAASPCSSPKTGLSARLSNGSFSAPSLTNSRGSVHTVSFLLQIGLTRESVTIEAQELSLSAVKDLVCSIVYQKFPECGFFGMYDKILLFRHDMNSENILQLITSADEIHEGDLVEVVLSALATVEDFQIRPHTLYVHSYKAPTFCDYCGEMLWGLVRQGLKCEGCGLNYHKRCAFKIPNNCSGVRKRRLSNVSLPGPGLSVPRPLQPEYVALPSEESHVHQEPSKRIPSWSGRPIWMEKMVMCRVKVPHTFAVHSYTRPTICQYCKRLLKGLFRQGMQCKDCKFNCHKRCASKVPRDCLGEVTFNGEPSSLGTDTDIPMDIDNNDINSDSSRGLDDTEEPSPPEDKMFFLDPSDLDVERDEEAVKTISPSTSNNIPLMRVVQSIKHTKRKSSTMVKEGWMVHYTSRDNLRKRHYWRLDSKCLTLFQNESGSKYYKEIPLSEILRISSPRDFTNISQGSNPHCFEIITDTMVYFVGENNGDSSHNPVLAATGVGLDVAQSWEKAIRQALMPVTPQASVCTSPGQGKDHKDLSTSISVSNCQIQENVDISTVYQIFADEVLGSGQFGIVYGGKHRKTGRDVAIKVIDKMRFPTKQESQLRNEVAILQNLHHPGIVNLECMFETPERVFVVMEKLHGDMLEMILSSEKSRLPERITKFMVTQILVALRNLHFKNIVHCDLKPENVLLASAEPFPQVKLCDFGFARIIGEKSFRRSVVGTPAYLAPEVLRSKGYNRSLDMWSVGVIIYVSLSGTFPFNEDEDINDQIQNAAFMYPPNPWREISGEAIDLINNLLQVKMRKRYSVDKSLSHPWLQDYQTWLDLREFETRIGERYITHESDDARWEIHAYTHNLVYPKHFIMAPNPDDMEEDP
# [13] = molecular target: T2, Tyrosine-protein kinase Tec (Homo sapiens) (UniProt P42680); test: Inhibition of TEC (unknown origin) assessed as remaining activity at 1 uM by Kinome scan method relative to control
# T2 sequence (whole entry): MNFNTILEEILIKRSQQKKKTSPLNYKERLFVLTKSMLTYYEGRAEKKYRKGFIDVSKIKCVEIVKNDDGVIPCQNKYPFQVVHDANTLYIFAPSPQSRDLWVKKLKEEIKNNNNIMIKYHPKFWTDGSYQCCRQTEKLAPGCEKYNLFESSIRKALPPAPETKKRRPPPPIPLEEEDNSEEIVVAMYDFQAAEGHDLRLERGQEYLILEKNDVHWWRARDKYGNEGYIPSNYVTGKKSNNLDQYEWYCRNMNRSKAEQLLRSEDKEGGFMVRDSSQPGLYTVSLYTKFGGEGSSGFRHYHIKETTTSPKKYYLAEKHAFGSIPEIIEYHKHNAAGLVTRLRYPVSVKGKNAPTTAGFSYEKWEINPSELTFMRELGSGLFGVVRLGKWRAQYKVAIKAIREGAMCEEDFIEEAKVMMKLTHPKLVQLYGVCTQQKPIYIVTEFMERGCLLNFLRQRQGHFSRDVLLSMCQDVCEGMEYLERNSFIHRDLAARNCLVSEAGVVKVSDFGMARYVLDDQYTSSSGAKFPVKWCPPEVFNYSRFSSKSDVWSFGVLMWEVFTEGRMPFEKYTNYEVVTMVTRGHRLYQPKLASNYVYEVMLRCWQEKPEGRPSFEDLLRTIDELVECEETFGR
# [14] = molecular target: Dual specificity testis-specific protein kinase 1 (Homo sapiens) (UniProt Q15569); test: Inhibition of TESK1 (unknown origin) assessed as remaining activity at 1 uM by Kinome scan method relative to control
# Dual specificity testis-specific protein kinase 1 (Homo sapiens), sequence (Q15569 whole entry, looked up): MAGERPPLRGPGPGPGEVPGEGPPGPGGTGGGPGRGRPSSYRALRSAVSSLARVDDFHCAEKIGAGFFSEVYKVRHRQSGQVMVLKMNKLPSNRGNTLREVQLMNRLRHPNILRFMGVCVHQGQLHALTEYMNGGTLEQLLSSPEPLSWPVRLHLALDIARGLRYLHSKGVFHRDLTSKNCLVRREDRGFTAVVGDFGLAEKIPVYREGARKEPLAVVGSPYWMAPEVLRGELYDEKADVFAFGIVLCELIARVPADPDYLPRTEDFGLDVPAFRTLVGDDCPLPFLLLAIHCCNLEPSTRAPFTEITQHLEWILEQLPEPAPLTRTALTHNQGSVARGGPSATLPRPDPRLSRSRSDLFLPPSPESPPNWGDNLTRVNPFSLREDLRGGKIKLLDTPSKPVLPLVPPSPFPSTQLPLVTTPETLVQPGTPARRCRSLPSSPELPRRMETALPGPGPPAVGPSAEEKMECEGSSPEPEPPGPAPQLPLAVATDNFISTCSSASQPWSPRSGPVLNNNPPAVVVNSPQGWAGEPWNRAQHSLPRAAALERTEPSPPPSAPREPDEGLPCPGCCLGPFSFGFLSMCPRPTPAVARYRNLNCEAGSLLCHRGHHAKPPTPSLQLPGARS
# [15] = molecular target: Serine/threonine-protein kinase tousled-like 2 (Homo sapiens) (UniProt Q86UE8); test: Inhibition of TLK2 (unknown origin) assessed as remaining activity at 1 uM by Kinome scan method relative to control
# [16] = molecular target: Mitogen-activated protein kinase kinase kinase 20 (Homo sapiens) (UniProt Q9NYL2); test: Inhibition of ZAK (unknown origin) assessed as remaining activity at 1 uM by Kinome scan method relative to control
# BMP-2-inducible protein kinase (Homo sapiens), sequence (Q9NSY1 whole entry, looked up): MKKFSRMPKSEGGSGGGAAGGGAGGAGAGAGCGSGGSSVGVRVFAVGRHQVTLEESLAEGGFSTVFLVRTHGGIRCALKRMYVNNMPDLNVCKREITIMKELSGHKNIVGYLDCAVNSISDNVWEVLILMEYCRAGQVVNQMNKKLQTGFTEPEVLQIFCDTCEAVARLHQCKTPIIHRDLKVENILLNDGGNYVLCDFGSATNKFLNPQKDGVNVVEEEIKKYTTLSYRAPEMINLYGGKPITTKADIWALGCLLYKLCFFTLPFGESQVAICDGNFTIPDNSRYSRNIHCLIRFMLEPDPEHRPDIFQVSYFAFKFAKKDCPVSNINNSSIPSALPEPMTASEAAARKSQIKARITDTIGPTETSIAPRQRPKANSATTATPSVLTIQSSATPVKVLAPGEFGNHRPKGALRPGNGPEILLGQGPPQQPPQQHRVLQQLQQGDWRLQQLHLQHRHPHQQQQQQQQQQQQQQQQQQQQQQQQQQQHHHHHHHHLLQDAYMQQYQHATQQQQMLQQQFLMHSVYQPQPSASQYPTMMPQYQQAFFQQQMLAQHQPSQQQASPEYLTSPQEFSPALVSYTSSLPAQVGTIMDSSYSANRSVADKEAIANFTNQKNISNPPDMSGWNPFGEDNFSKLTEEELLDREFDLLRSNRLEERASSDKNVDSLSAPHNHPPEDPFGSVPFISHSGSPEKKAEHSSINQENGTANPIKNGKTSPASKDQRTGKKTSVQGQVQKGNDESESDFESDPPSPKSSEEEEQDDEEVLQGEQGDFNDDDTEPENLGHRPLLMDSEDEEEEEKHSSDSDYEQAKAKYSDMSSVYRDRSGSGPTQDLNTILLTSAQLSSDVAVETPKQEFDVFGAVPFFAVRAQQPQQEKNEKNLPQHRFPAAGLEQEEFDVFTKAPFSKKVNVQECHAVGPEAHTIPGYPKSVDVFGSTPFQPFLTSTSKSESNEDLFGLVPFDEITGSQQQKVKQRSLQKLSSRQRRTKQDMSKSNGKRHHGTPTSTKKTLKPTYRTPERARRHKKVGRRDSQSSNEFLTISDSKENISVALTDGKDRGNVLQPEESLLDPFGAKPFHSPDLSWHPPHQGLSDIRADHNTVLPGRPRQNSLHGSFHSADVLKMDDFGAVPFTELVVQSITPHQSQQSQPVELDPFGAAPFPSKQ
Structure (SMILES),Activity [1] [%],Activity [2] [%],Activity [3] [%],Activity [4] [%],Activity [5] [%],Activity [6] [%],Activity [7] [%],Activity [8] [%],Activity [9] [%],Activity [10] [%],Activity [11] [%],Activity [12] [%],Activity [13] [%],Activity [14] [%],Activity [15] [%],Activity [16] [%]
Nc1ccccc1Nc1ccc2c(c1)CCc1ccccc1C2=O,50,95,64,75,96,94,99,94,72,81,64,77,98,90,85,85
O=C1c2ccc(Nc3ccc(F)cc3F)cc2CCc2ccc(OC[C@H](O)CO)cc21 [Skepinone-L],37,100,67,100,86,100,93,80,97,87,85,91,99,100,82,98

# Source: ChEMBL document CHEMBL5696441 (Nat Chem Biol, 2011)
